From ChEMBL document CHEMBL1134637, “Fluorescent tricyclic analogues of acyclovir and ganciclovir. A structure-antiviral activity study” (2001)
Converted amounts (≈) assume the structure as drawn.

What was measured:
Format in all cases: functional
[1] = system: Human alphaherpesvirus 2; assay: Minimal inhibitory concentration to reduce virus-induced cytopathicity against G strain of human Herpes Simplex Virus-2
[2] = Minimal cytotoxic concentration (MCC) to cause a microscopically detectable change in normal cell morphology
[3] = system: Vesicular stomatitis virus; assay: Minimal inhibitory concentration to reduce virus-induced cytopathicity against VSV
[4] = system: Vaccinia virus; assay: Minimal inhibitory concentration to reduce virus-induced cytopathicity against VV; conditions: Orthopoxvirus vaccinia
[5] = system: Human alphaherpesvirus 1; assay: Minimal inhibitory concentration to reduce virus-induced cytopathicity against F strain of human Herpes Simplex Virus-1 (HSV-1)
[6] = system: Human alphaherpesvirus 1; assay: Minimal inhibitory concentration to reduce virus-induced cytopathicity against KOS strain of human Herpes Simplex Virus -1
[7] = system: Human alphaherpesvirus 2; assay: Minimal inhibitory concentration to reduce virus-induced cytopathicity against Lyons strain of human Herpes Simplex Virus-2
[8] = system: Human alphaherpesvirus 1; assay: Minimal inhibitory concentration to reduce virus-induced cytopathicity against Thymidine kinase deficient(TK-) HSV-1 of Acyclovir
[9] = system: Human alphaherpesvirus 1; assay: Minimal inhibitory concentration to reduce virus-induced cytopathicity against McIntyre strain of human Herpes Simplex Virus-1
[10] = system: Human alphaherpesvirus 1; assay: Minimal inhibitory concentration to reduce virus-induced cytopathicity against TK-/TK+ HSV-1 of VMW 837
[11] = system: Human alphaherpesvirus 2; assay: Minimal inhibitory concentration to reduce virus-induced cytopathicity against 196 strain of human Herpes Simplex Virus-2
[12] = system: Human alphaherpesvirus 1; assay: Minimal inhibitory concentration to reduce virus-induced cytopathicity against TK-/TK+ HSV-1 (VMW 837)
[13] = system: Human alphaherpesvirus 1; assay: Minimal inhibitory concentration to reduce virus-induced cytopathicity against Thymidine kinase deficient(TK-) HSV-1 (Acyclovir)
[14] = Human alphaherpesvirus 2, read-out: MIC
[15] = Human alphaherpesvirus 1, read-out: MIC

Row | SMILES | MIC [1, 14] [µg/mL] | MCC [2] [µg/mL] | MIC [3] [µg/mL] | MIC [4] [µg/mL] | MIC [5, 15] [µg/mL] | MIC [6] [µg/mL] | MIC [7] [µg/mL] | MIC [8] [µg/mL] | MIC [9] [µg/mL] | MIC [10] [µg/mL] | MIC [11] [µg/mL] | MIC [1] | MIC [5] [pug ml-1] | MIC [12] [µg/mL] | MIC [13] [µg/mL]
1 | OCCOCn1cnc2c(O)n3c(CO)cnc3nc21 | > 3.2 | > 16 | > 3.2 | > 3.2 | > 3.2 | > 3.2 | > 3.2 | > 3.2 | > 3.2 | > 3.2 | > 3.2 |  |  |  | 
2 | O=[N+]([O-])c1ccc(-c2cn3c(O)c4ncn(COCCO)c4nc3n2)cc1 | 9.6 (≈ 25.9 µM) | 80 | > 16 | > 16 | 16 (≈ 43.2 µM) | 9.6 (≈ 25.9 µM) | > 16 | > 16 | 16 (≈ 43.2 µM) | > 16 | > 16 |  |  |  | 
3 | Cc1ccc(-c2cn3c(O)c4ncn(COCCO)c4nc3n2)cc1 | 0.93 (≈ 2.74 µM) | 250 | > 40 | > 40 | 0.07 (≈ 0.206 µM) | 0.43 (≈ 1.27 µM) | 0.4 (≈ 1.18 µM) | 9.2 (≈ 27.1 µM) | 0.07 (≈ 0.206 µM) | 82 (≈ 242 µM) | 0.2 (≈ 0.589 µM) |  |  |  | 
4 | COc1ccc(-c2cn3c(O)c4ncn(COCCO)c4nc3n2)c(OC)c1 | 3.2 (≈ 8.3 µM) | 80 | 16 (≈ 41.5 µM) | 16 (≈ 41.5 µM) | 1.92 (≈ 4.98 µM) | 1.92 (≈ 4.98 µM) | 1.92 (≈ 4.98 µM) | > 16 | 1.92 (≈ 4.98 µM) | 1.92 (≈ 4.98 µM) | 1.92 (≈ 4.98 µM) |  |  |  | 
5 | Cc1nc2nc3c(ncn3COCCO[Si](C)(C)C(C)(C)C)c(O)n2c1C(c1ccccc1)(c1ccccc1)c1ccccc1 | > 10 | 40 | > 10 | 2 (≈ 3.23 µM) |  | > 10 |  | > 10 |  | > 10 |  |  |  |  | 
6 | O=c1c2ncn(COCCO)c2nc2n(Cc3ccccc3)c(-c3ccccc3)cn12 |  | > 100 | > 100 | > 100 |  | > 100 |  | > 100 |  | > 100 |  | > 100 µg/mL |  |  | 
7 | COc1ccc(-c2cn3c(O)c4ncn(COCCO)c4nc3n2)cc1 | 0.15 (≈ 0.422 µM) | 150 | > 40 | > 40 | 0.07 (≈ 0.197 µM) | 0.1 (≈ 0.281 µM) | 0.2 (≈ 0.563 µM) | 5.9 (≈ 16.6 µM) | 0.03 (≈ 0.0844 µM) | 21 (≈ 59.1 µM) | 0.2 (≈ 0.563 µM) |  |  |  | 
8 | OCCOCn1cnc2c(O)n3c(-c4ccccc4)c(-c4ccccc4)nc3nc21 | 1.92 (≈ 4.78 µM) | > 16 | > 16 | > 16 | 9.6 (≈ 23.9 µM) | 1.92 (≈ 4.78 µM) | 16 (≈ 39.9 µM) | > 16 | 9.6 (≈ 23.9 µM) | > 16 | 9.6 (≈ 23.9 µM) |  |  |  | 
9 | COc1ccccc1-c1cn2c(O)c3ncn(COCCO)c3nc2n1 | 1.92 (≈ 5.4 µM) | 400 | > 80 | > 80 | 1.92 (≈ 5.4 µM) | 1.92 (≈ 5.4 µM) | 9.6 (≈ 27 µM) | > 80 | 1.92 (≈ 5.4 µM) | 9.6 (≈ 27 µM) | 9.6 (≈ 27 µM) |  |  |  | 
10 | OCCOCn1cnc2c(O)n3cc(-c4ccccc4)nc3nc21 | 1.3 (≈ 4 µM) | > 100 | > 100 | > 100 | 0.7 (≈ 2.15 µM) | 0.4 (≈ 1.23 µM) | 0.7 (≈ 2.15 µM) |  | 0.2 (≈ 0.615 µM) | > 70 | 0.2 (≈ 0.615 µM) |  |  |  | 
11 | Cc1c(-c2ccccc2)nc2nc3c(ncn3COC(CO)CO)c(O)n12 | 0.03 (≈ 0.0812 µM) | > 400 | > 240 | > 400 | 0.005 (≈ 0.0135 µM) | 0.02 (≈ 0.0541 µM) | 0.02 (≈ 0.0541 µM) | 3.2 (≈ 8.66 µM) | 0.005 (≈ 0.0135 µM) | 0.02 (≈ 0.0541 µM) | 0.005 (≈ 0.0135 µM) |  |  |  | 
12 | COc1ccc(-c2cn3c(O)c4ncn(COC(CO)CO)c4nc3n2)cc1 | 0.03 (≈ 0.0778 µM) | > 80 | > 80 | > 80 | 0.005 (≈ 0.013 µM) | 0.005 (≈ 0.013 µM) | 0.02 (≈ 0.0519 µM) | > 16 | 0.005 (≈ 0.013 µM) | 0.04 (≈ 0.104 µM) | 0.08 (≈ 0.208 µM) |  |  |  | 
13 | Cc1ccc(-c2cn3c(O)c4ncn(COC(CO)CO)c4nc3n2)cc1 | 0.13 (≈ 0.352 µM) | 80 | > 16 | > 16 | 0.01 (≈ 0.0271 µM) | 0.02 (≈ 0.0541 µM) | 0.08 (≈ 0.217 µM) | > 16 | 0.08 (≈ 0.217 µM) | 0.1 (≈ 0.271 µM) | 0.13 (≈ 0.352 µM) |  |  |  | 
14 | COc1ccc(OC)c(-c2cn3c(O)c4ncn(COCCO)c4nc3n2)c1 | 9.6 (≈ 24.9 µM) | 80 | > 16 | > 16 | 16 (≈ 41.5 µM) | 9.6 (≈ 24.9 µM) | > 16 | > 16 | 16 (≈ 41.5 µM) | > 16 | > 16 |  |  |  | 
15 | Cc1nc2nc3c(ncn3COCCO)c(O)n2c1C(c1ccccc1)(c1ccccc1)c1ccccc1 | > 16 | 80 | > 16 | > 16 | > 16 | > 16 | > 16 | > 16 | > 16 | > 16 | > 16 |  |  |  | 
16 | OCC(CO)OCn1cnc2c(O)n3ccnc3nc21 | 2 (≈ 7.16 µM) | 400 |  | 400 (≈ 1430 µM) | 0.7 (≈ 2.51 µM) | 0.7 (≈ 2.51 µM) | 0.7 (≈ 2.51 µM) | 400 (≈ 1430 µM) | 0.7 (≈ 2.51 µM) |  | 2 (≈ 7.16 µM) |  |  |  | 
17 | OCCOCn1cnc2c(O)n3ccnc3nc21 | 20 (≈ 80.2 µM) | 400 |  | 400 (≈ 1600 µM) |  | 20 (≈ 80.2 µM) | 10 (≈ 40.1 µM) | 400 (≈ 1600 µM) | 20 (≈ 80.2 µM) |  | 70 (≈ 281 µM) |  | 4 |  | 
18 | OCCOCn1cnc2c(O)n3c(-c4ccc(C(c5ccccc5)c5ccccc5)cc4)c(-c4ccccc4)nc3nc21 | > 16 | 80 | > 16 | > 16 | > 16 | > 16 | > 16 | > 16 | > 16 | > 16 | > 16 |  |  |  | 
19 | OCCOCn1cnc2c(O)n3c(C(c4ccccc4)(c4ccccc4)c4ccccc4)cnc3nc21 | > 16 | 80 | > 16 | > 16 | > 16 | > 16 | > 16 | > 16 | > 16 | > 16 | > 16 |  |  |  | 
20 | COc1ccc(-c2nc3nc4c(ncn4COCCO)c(O)n3c2-c2ccc(C(c3ccccc3)c3ccccc3)cc2)cc1 |  | 80 | > 16 | > 16 | > 16 | > 16 | > 16 | > 16 | > 16 | > 16 | > 16 | >16 pug ml-1 |  |  | 
21 | OCCOCn1cnc2c(O)n3cc(-c4ccc5ccccc5c4)nc3nc21 | 6.4 (≈ 17 µM) | > 80 | > 16 | > 16 | 9.6 (≈ 25.6 µM) | 5.8 (≈ 15.5 µM) | 9.6 (≈ 25.6 µM) | 16 (≈ 42.6 µM) | 9.6 (≈ 25.6 µM) | 12.8 (≈ 34.1 µM) | 16 (≈ 42.6 µM) |  |  |  | 
22 | CC(=O)OCCOCn1cnc2c(O)n3cc(-c4ccc5ccccc5c4)nc3nc21 | > 16 | > 80 | > 16 | > 16 | > 16 | > 16 | > 16 | > 16 | > 16 | > 16 | > 16 |  |  |  | 
23 | CCc1cn2c(O)c3ncn(COCCO)c3nc2n1 | 9.6 (≈ 34.6 µM) | > 400 | > 400 | 240 (≈ 866 µM) | 9.6 (≈ 34.6 µM) | 1.92 (≈ 6.92 µM) | 9.6 (≈ 34.6 µM) | 240 (≈ 866 µM) | 9.6 (≈ 34.6 µM) | 48 (≈ 173 µM) | 9.6 (≈ 34.6 µM) |  |  |  | 
24 | COc1cccc(-c2cn3c(O)c4ncn(COCCO)c4nc3n2)c1 | 1.92 (≈ 5.4 µM) | > 400 | 240 (≈ 675 µM) | > 400 | 1.92 (≈ 5.4 µM) | 1.92 (≈ 5.4 µM) | 3.2 (≈ 9.01 µM) | > 80 | 0.64 (≈ 1.8 µM) | 9.6 (≈ 27 µM) | 3.2 (≈ 9.01 µM) |  |  |  | 
25 | Cc1c(-c2ccccc2)nc2nc3c(ncn3COCCO)c(O)n12 | 0.16 (≈ 0.471 µM) | 300 | > 200 | > 200 | 0.04 (≈ 0.118 µM) | 0.11 (≈ 0.324 µM) | 0.07 (≈ 0.206 µM) | 3.2 (≈ 9.43 µM) | 0.06 (≈ 0.177 µM) | 3.2 (≈ 9.43 µM) | 0.1 (≈ 0.295 µM) |  |  |  | 
26 | OCC(CO)OCn1cnc2c(O)n3cc(-c4ccccc4)nc3nc21 | 0.3 (≈ 0.844 µM) | > 175 | > 175 | > 90 | 0.005 (≈ 0.0141 µM) | 0.02 (≈ 0.0563 µM) | 0.005 (≈ 0.0141 µM) |  | 0.005 (≈ 0.0141 µM) | 0.5 (≈ 1.41 µM) | 0.02 (≈ 0.0563 µM) |  |  |  | 
27 | Nc1nc2c(ncn2COCCO)c(=O)[nH]1 [ACYCLOVIR] | 0.19 (≈ 0.844 µM) | > 400 | > 80 | > 80 | 0.08 (≈ 0.355 µM) | 0.13 (≈ 0.577 µM) | 0.28 (≈ 1.24 µM) |  | 0.13 (≈ 0.577 µM) |  | 0.07 (≈ 0.311 µM) |  |  | 7.1 (≈ 31.5 µM) | 19 (≈ 84.4 µM)
28 | O=c1[nH]c(=O)n([C@H]2C[C@H](O)[C@@H](CO)O2)cc1/C=C/Br [BRIVUDINE] | > 100 | > 400 | > 200 | 9.2 (≈ 27.6 µM) | 0.02 (≈ 0.06 µM) | 0.02 (≈ 0.06 µM) | > 100 | 90 (≈ 270 µM) | 0.01 (≈ 0.03 µM) | > 100 | > 100 |  |  |  | 
29 | Nc1nc2c(ncn2COC(CO)CO)c(=O)[nH]1 [GANCICLOVIR] | 0.01 (≈ 0.0392 µM) | > 100 | > 100 | > 100 | 0.004 (≈ 0.0157 µM) | 0.006 (≈ 0.0235 µM) | 0.04 (≈ 0.157 µM) | 0.48 (≈ 1.88 µM) | 0.006 (≈ 0.0235 µM) | 0.07 (≈ 0.274 µM) | 0.02 (≈ 0.0784 µM) |  |  |  | 
